A short description of data set [1]: Permeability in human Caco2 cells. The data set is classed as ADME, cell-based. The note with it: caco-2.
Data set [2] has as its target Phosphatidylinositol 4-kinase alpha (Homo sapiens, UniProt P42356). The data set can be described thus: Inhibition of PI4KA (unknown origin) assessed as reduction in substrate phosphorylation by FRET Adapta assay.
Data set [3] is described as follows: Half life in rat plasma at 0.5 mg/kg, iv. Format: ADME, organism-based.
Data set [4] in a line: Thermodynamic stability assessed as onset melting temperature. Format: physicochemical.
In data set [5] the target is Phosphatidylinositol 4-kinase beta (Homo sapiens, UniProt Q9UBF8). Briefly: Inhibition of PI4KB (unknown origin) assessed as reduction in substrate phosphorylation by FRET Adapta assay.
Data set [6] addresses Phosphatidylinositol 4,5-bisphosphate 3-kinase catalytic subunit alpha isoform (Homo sapiens, UniProt P42336). The data set can be described thus: Inhibition of recombinant human PI3Kalpha assessed as reduction in ADP production using Dic8-PIP2 as substrate pre-treated for 15 mins followed by substrate addition measured after 60 mins by ADP-glo assay. A general note: In ADP-Glo the light output rises with the ADP produced.

Data set [7] can be described thus: Volume of distribution at steady state in rat at 0.5 mg/kg, iv. Format: ADME, organism-based. The following applies: in vivo, read-out: Vdss.
For data set [8], the target named is T1, Phosphatidylinositol 4,5-bisphosphate 3-kinase catalytic subunit delta isoform (Homo sapiens, UniProt O00329).
T1 sequence (O00329 whole entry): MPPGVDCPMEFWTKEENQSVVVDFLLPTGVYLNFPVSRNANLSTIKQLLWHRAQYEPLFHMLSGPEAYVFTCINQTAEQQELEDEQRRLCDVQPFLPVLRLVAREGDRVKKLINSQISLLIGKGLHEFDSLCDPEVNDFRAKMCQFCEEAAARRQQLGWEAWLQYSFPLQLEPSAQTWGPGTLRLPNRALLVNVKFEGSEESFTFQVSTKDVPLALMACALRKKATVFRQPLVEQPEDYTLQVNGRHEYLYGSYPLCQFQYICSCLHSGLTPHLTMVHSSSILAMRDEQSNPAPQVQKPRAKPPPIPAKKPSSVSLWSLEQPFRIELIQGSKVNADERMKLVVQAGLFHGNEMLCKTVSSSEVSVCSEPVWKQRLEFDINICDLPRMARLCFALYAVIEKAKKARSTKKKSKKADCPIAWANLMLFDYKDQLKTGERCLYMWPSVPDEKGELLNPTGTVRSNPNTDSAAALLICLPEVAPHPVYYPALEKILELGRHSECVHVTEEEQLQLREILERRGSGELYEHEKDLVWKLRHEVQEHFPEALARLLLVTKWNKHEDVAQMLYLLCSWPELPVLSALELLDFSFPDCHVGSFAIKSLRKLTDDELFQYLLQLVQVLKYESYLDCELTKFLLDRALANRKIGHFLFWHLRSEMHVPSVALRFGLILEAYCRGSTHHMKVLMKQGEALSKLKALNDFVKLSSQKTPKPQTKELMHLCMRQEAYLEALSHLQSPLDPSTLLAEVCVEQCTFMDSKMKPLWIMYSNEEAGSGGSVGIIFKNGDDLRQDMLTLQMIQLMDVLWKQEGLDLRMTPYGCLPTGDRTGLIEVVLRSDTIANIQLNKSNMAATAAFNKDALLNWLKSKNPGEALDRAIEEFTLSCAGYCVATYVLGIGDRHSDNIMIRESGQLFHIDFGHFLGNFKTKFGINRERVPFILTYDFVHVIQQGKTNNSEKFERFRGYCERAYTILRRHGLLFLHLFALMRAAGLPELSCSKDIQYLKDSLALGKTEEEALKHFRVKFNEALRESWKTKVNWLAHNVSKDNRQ
The data set can be described thus: Inhibition of recombinant human PI3Kdelta assessed as reduction in ADP production using Dic8-PIP2 as substrate pre-treated for 15 mins followed by substrate addition measured after 60 mins by ADP-glo assay.

Data set [9] has as its target Phosphatidylinositol 3-kinase catalytic subunit type 3 (Homo sapiens, UniProt Q8NEB9). Briefly: Inhibition of PIK3C3 (unknown origin) assessed as reduction in substrate phosphorylation by FRET Adapta assay.
Data set [10] deals with Phosphatidylinositol 4,5-bisphosphate 3-kinase catalytic subunit delta isoform/gamma isoform (Homo sapiens) (UniProt P48736+O00329). The data set can be described thus: Inhibition of PI3kgamma/delta in anti-CD2/3/28-stimulated human PBMC cells derived from asthmatic patient assessed as reduction in IL-5 release pre-incubated for 1 hr followed by anti-CD2/3/28 stimulation measured after 24 hrs by flow cytometry. Format: cell-based. The note with it: time 25.0 hrs. On the technique in general: In flow cytometry, cells or beads pass a laser one at a time.

For data set [11], the target named is Phosphatidylinositol 4-phosphate 3-kinase C2 domain-containing subunit beta (Homo sapiens, UniProt O00750). The data set can be described thus: Inhibition of PIK3C2B (unknown origin) assessed as reduction in substrate phosphorylation by FRET Adapta assay.
Data set [12] can be described thus: Apparent terminal half life in rat administered via inhalation. The data set is classed as ADME. The note with it: in vivo, inhaled or intranasal.
A short description of data set [13]: Apparent permeability in human Caco2 cells. Format: ADME, cell-based. The following applies: caco-2. (In general: Passage across Caco-2 layers is used to estimate intestinal permeability.)
Data set [14] relates to Rattus norvegicus. The data set can be described thus: Antiinflammatory activity in ovalbumin-induced Brown Norway rat assessed as reduction in eosinophil counts in bronchoalveolar lavage at 240 microg/kg inhaled using nebulizer 7 hrs prior to ovalbumin challenge measured after 48 hrs by flow cytometry. The data set is classed as functional, organism-based. The following applies: dose 240.0 µg/kg, time 55.0 hrs.

A short description of data set [15]: Clearance in rat at 0.5 mg/kg, iv. Format: ADME, organism-based. The following applies: in vivo.

The structures appear in SMILES notation. Active and inactive are the calls of the source. The rule behind the calls is not given here.

The source of these data is ChEMBL document CHEMBL5029145, “Discovery of AZD8154, a Dual PI3Kγδ Inhibitor for the Treatment of Asthma” (J Med Chem, 2021).

Sequence of Phosphatidylinositol 4-phosphate 3-kinase C2 domain-containing subunit beta (O00750 whole entry, the tested form may be a part): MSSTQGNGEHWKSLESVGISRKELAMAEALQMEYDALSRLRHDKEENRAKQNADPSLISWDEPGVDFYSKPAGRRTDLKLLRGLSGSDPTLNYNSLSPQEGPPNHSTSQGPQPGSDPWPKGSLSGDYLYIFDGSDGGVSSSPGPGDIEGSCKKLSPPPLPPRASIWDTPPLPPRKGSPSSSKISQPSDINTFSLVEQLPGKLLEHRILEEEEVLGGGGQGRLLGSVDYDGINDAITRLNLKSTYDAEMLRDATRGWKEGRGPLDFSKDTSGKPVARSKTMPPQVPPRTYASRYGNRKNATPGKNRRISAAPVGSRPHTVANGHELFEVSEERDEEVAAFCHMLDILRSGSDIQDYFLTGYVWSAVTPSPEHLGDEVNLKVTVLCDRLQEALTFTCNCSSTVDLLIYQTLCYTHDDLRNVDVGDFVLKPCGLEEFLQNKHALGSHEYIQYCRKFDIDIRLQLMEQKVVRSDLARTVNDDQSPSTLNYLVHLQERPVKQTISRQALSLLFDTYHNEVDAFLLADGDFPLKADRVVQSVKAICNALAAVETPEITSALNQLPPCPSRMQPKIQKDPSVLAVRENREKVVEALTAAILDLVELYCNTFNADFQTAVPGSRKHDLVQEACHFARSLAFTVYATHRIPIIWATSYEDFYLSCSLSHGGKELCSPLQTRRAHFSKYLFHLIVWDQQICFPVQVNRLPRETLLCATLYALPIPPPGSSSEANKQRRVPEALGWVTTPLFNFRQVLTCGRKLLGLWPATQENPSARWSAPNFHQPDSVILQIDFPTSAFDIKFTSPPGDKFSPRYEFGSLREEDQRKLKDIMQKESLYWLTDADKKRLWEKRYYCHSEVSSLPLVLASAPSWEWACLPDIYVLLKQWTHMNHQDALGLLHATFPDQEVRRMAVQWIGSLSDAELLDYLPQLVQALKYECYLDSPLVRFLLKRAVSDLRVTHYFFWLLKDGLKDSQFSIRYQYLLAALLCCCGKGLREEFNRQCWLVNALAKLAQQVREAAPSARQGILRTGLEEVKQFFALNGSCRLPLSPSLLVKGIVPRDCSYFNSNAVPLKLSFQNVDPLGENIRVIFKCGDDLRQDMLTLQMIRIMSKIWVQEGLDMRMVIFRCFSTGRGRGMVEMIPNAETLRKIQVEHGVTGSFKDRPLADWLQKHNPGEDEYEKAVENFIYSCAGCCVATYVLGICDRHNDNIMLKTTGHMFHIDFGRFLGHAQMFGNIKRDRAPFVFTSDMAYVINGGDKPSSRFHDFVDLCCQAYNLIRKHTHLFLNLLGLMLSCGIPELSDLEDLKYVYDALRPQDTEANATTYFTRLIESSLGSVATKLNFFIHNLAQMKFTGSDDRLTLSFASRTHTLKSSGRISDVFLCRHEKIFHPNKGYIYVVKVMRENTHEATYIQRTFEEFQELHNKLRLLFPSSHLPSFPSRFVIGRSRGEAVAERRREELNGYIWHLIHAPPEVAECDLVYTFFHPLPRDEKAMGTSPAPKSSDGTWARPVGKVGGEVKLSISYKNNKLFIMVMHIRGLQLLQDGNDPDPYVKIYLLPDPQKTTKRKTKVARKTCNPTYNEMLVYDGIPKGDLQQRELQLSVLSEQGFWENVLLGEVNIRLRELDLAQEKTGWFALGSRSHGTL
Sequence of Phosphatidylinositol 3-kinase catalytic subunit type 3 (Q8NEB9 whole entry, canonical isoform): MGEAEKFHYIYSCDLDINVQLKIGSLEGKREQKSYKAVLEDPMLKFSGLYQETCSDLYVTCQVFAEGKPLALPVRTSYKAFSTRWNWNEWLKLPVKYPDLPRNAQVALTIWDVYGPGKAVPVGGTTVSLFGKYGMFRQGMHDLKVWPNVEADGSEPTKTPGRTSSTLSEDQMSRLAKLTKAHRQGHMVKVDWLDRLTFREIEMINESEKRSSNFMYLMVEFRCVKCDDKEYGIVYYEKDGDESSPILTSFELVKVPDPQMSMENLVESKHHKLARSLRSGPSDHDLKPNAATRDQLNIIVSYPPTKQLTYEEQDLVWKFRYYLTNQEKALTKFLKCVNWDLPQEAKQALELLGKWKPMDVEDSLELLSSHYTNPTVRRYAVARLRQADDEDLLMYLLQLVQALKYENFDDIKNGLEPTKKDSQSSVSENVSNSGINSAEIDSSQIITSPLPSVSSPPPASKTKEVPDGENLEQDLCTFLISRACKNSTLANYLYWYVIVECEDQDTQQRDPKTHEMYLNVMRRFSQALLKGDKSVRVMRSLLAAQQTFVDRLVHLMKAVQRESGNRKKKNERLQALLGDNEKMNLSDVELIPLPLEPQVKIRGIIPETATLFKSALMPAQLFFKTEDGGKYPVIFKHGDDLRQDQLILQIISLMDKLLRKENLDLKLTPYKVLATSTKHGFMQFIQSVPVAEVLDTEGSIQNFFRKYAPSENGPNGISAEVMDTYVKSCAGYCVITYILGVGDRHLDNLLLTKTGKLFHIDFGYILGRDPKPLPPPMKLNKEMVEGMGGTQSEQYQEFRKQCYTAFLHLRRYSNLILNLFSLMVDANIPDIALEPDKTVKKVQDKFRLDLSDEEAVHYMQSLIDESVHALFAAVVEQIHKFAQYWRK
Sequence of Phosphatidylinositol 4,5-bisphosphate 3-kinase catalytic subunit delta isoform/gamma isoform (Homo sapiens) (P48736 whole entry, looked up, one chain of several, canonical isoform): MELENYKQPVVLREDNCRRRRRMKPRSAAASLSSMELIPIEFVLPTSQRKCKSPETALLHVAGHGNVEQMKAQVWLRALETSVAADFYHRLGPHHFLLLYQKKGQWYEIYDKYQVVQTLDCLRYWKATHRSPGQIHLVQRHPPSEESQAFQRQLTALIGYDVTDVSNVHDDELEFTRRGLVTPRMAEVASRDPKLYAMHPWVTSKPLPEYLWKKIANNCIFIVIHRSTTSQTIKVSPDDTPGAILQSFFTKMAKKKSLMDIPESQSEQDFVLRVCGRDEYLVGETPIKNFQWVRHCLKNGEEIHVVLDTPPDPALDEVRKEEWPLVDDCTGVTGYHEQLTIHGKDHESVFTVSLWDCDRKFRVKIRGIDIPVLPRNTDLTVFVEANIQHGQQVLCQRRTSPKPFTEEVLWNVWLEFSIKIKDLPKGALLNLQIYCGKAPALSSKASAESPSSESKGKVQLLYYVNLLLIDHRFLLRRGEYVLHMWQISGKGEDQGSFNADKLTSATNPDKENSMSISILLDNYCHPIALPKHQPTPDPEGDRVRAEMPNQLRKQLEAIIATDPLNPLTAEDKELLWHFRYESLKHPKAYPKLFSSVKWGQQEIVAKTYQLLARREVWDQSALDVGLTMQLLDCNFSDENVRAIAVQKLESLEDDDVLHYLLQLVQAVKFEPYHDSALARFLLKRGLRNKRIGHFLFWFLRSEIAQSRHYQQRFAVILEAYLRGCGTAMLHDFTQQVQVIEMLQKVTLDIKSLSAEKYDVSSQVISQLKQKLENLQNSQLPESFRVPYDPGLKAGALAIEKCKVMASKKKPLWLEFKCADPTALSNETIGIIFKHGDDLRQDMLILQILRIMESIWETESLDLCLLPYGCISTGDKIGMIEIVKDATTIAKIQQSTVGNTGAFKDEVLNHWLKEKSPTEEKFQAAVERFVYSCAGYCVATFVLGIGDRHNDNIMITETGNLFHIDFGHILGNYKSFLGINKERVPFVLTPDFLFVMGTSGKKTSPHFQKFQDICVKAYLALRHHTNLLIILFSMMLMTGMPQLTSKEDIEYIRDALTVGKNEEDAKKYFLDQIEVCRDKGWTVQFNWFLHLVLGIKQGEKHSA
Sequence of Phosphatidylinositol 4-kinase beta (Q9UBF8 whole entry, canonical isoform): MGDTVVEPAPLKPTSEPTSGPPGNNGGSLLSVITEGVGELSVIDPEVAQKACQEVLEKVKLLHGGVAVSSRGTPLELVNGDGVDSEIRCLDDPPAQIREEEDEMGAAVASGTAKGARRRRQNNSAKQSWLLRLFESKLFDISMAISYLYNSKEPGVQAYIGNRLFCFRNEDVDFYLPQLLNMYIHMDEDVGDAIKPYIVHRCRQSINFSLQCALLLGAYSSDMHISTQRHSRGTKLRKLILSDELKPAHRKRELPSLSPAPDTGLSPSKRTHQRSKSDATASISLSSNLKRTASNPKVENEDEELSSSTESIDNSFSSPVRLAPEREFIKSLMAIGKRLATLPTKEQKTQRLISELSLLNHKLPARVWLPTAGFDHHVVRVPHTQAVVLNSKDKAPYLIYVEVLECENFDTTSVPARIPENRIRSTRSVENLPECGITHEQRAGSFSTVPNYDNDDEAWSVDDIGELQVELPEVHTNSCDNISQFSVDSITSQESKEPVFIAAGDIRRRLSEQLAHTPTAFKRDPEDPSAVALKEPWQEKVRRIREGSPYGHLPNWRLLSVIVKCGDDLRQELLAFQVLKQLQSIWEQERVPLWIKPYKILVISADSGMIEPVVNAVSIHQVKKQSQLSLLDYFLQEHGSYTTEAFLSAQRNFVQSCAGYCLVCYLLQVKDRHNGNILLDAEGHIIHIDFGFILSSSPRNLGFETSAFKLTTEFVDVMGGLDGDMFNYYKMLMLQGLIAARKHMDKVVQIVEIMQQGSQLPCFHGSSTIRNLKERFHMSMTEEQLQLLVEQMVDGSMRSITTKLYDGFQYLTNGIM

Regarding `Cc1nc(Nc2cccc(N3CCCC3=O)n2)sc1-c1cc2c(c(S(C)(=O)=O)c1)C(=O)N([C@@H](C)C1CC1)C2` [AZD-8154], the permeability result in [1] is recorded as “Permeable”. For the same compound, the IC50 – broadly, the concentration that inhibits the measured activity by half – in [2] was over 10000 nM; in data set [5], 3160 nM; in [6], 63.1 nM; in data set [8], 0.631 nM; in [9], 501 nM; in data set [11], 3.16 nM. The values for the half-life in data set [3] and in [12] were 2.9 h and 7.1 h, respectively. In [4], the Tm was found to be 285 °C. The Vd in data set [7] turned out to be 4 L/kg. The outcome in [10] and in data set [14] was Active. The Papp entry in data set [13] was “Impermeable”. Moreover, the clearance (commonly the rate of elimination divided by the concentration) in data set [15] is 20 mL/min/kg.
